Among the data in US20260356841A1, “HETEROCYCLIC PYRIDINONE COMPOUNDS AS TRIGGERING RECEPTOR EXPRESSED ON MYELOID CELLS 2 AGONISTS AND METHODS OF USE” (Vigil Neuroscience, Inc., priority 2023, published 2026) are EC50 values, retold here.

T1 sequence (Q9NZC2 19-230): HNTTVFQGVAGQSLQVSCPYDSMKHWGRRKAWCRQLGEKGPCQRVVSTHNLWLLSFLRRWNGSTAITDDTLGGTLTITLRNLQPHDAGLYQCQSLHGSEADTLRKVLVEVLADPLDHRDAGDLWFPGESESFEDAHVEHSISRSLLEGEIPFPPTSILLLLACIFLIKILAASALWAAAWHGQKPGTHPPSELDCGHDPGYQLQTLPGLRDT
T1 sequence (O43914 22-113 partner): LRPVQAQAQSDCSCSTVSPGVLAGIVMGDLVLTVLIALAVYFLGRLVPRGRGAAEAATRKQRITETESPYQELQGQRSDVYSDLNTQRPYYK

The first test addresses T1, human TREM2 (Homo sapiens, UniProt Q9NZC2).
T1 construct: expressed in transfected cells; host or cells: HEK293T (HEK293T-hTREM2 cells)
The experiment in a line: TREM2 agonist potency by cellular phosphorylation of Spleen Tyrosine Kinase (Syk), AlphaLisa, HEK293T-hTREM2 cells. Format: cell-based.
Conditions: not given
An outline of the steps: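 HEK293T cells co-expressing human TREM2 and DAP12, plated 20–24 h before use. Compounds applied 45 min at room temperature in assay buffer, then cells lysed and phospho-Syk quantified by AlphaLisa. Percent activation from a standard curve; EC50 from a four-parameter variable-slope fit.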
As for `Cc1nc2nc(N3C[C@@H](C)O[C@@H](c4ccc(=O)n(C)c4)C3)nc(-c3ccc(C(F)(F)F)cc3F)c2nc1C` [Example 7, 5-[(2S,6R)-4-[4-[2-fluoro-4-(trifluoromethyl)phenyl]-6,7-dimethyl-pteridin-2-yl]-6-methyl-morpholin-2-yl]-1-methyl-pyridin-2-one], the 50% effective concentration (EC50) was < 100 nM.

The same test, now with this note: hTREM2 EC50 Data (HEK293 Cells); Syk phosphorylation, AlphaLisa; read-out: hTREM2 EC50.
Take `Cc1nc2c(C34CC(C(F)(F)F)(C3)C4)nc([C@H]3CCO[C@@H](c4ccc(=O)[nH]c4)C3)nc2c(=O)n1C` (racemic) [Example 216, 2,3-dimethyl-6-[rac-(2R,4S)-2-(6-oxo-1H-pyridin-3-yl)tetrahydropyran-4-yl]-8-[3-(trifluoromethyl)-1-bicyclo[1.1.1]pentanyl]pyrimido[5,4-d]pyrimidin-4-one]: the EC50 is 100 to 500 nM.
In the case of `Cc1nc2nc([C@H]3CCO[C@@H](c4ccc(=O)[nH]c4)C3)nc(C34CC(C(F)(F)F)(C3)C4)c2nc1C(F)(F)F` [Example 355], the EC50 was < 100 nM.
On the same count and under the same terms, the result for `C[C@@H]1CN(c2nc(-c3ccc(F)cc3F)c3sc(N(C)C)nc3n2)C[C@H](c2ccc(=O)[nH]c2)O1` [Example 173, 5-[(2S,6R)-4-[7-(2,4-difluorophenyl)-2-(dimethylamino)thiazolo[4,5-d]pyrimidin-5-yl]-6-methyl-morpholin-2-yl]-1H-pyridin-2-one] reads < 100 nM; that for `COc1nc2c(-c3ccc(C(F)(F)F)cc3F)nc([C@H]3CCO[C@@H](c4ccc(=O)n(C5CC5)c4)C3)nc2nc1C` [Example 134, 1-cyclopropyl-5-[(2R,4S)-4-[4-[2-fluoro-4-(trifluoromethyl)phenyl]-6-methoxy-7-methyl-pteridin-2-yl]tetrahydropyran-2-yl]pyridin-2-one], < 100 nM; that for `Cc1nc2nc([C@@H]3CCO[C@H](c4cnc(=O)n(C)c4)C3)nc(C34CC(C(F)(F)F)(C3)C4)c2nc1C` [Example 162, 1-methyl-5-[(2S,4R)-4-[6,7-dimethyl-4-[3-(trifluoromethyl)-1-bicyclo[1.1.1]-pentanyl]pteridin-2-yl]tetrahydropyran-2-yl]pyrimidin-2-one], < 100 nM.
Take `Cc1nc(-n2cc([C@H]3C[C@@H](c4nc(C56CC(C(F)(F)F)(C5)C6)c5nc(C)c(C)nc5n4)CCO3)ccc2=O)cs1` [Example 114, 5-((2R,4S)-4-(6,7-dimethyl-4-(3-(trifluoro-methyl)bicyclo[1.1.1]pentan-1-yl)pteridin-2-yl)tetrahydro-2H-pyran-2-yl)-1-(2-methyl-thiazol-4-yl)pyridin-2(1H)-one]: the EC50 was < 100 nM.
Still for that read-out and setting: the result for `COc1nc2c(C34CC(C(F)(F)F)(C3)C4)nc([C@H]3CCO[C@@H](c4ccc(=O)n(C)c4)C3)nc2nc1C` [Example 140, 5-[(2R,4S)-4-[6-methoxy-7-methyl-4-[3-(trifluoromethyl)-1-bicyclo[1.1.1]pentanyl]pteridin-2-yl]tetrahydropyran-2-yl]-1-methyl-pyridin-2-one] reads < 100 nM; that for `COc1nc2c(C34CC(C(F)(F)F)(C3)C4)nc([C@H]3CCO[C@@H](c4ccc(=O)n(C5CC5)c4)C3)nc2nc1C` [Example 142, 1-cyclopropyl-5-[(2R,4S)-4-[6-methoxy-7-methyl-4-[3-(trifluoromethyl)-1-bicyclo-[1.1.1]pentanyl]pteridin-2-yl]tetrahydropyran-2-yl]pyridin-2-one], < 100 nM; that for `Cc1nc2nc([C@H]3CCO[C@@H](c4ccc(=O)n(NCC(F)F)c4)C3)nc(C34CC(C(F)(F)F)(C3)C4)c2nc1C` [Example 214, 1-((2,2-difluoroethyl)amino)-5-((2R,4S)-4-(6,7-dimethyl-4-(3-(trifluoromethyl)bicyclo[1.1.1]pentan-1-yl)pteridin-2-yl)tetrahydro-2H-pyran-2-yl)pyridin-2(1H)-one], < 100 nM.
The same measure, in the same setting: for `Cc1nc2nc([C@H]3CCO[C@@H](c4ccc(=O)n(C5CC5)c4)C3)nc(-c3ccc(C(F)(F)F)cc3F)c2nc1C` [Example 64, 1-cyclopropyl-5-[(2R,4S)-4-[4-[2-fluoro-4-(trifluoromethyl)phenyl]-6,7-dimethyl-pteridin-2-yl]tetrahydropyran-2-yl]pyridin-2-one] the value was < 100 nM; for `[2H]C([2H])([2H])c1nc2nc(N3C[C@@H](C)O[C@@H](c4ccc(=O)n(C5CC5)c4)C3)nc(C34CC(C(F)(F)F)(C3)C4)c2nc1C([2H])([2H])[2H]` [Example 182, 5-[(2S,6R)-4-[6,7-bis(methyl-d3)-4-[3-(trifluoromethyl)-1-bicyclo[1.1.1]pentan-1-yl]pteridin-2-yl]-6-methyl-morpholin-2-yl]-1-cyclopropylpyridin-2(1H)-one], < 100 nM.
On the same count and under the same terms, for `CN(C)c1nc2c(C34CC(C(F)(F)F)(C3)C4)nc([C@H]3CCO[C@@H](c4ccc(=O)n(C)c4)C3)nc2n1C` [Example 188] the value was > 500 nM; for `CN(C)c1nc2nc([C@H]3CCO[C@H](c4ccc(=O)n(C)c4)C3)nc(-c3ccc(F)cc3F)c2s1` (stereo in doubt) [Example 11, 5-[(2S,4S)-4-[7-(2,4-difluorophenyl)-2-(dimethylamino)thiazolo[4,5-d]pyrimidin-5-yl]tetrahydropyran-2-yl]-1-methyl-pyridin-2-one], 100 to 500 nM.
For `Cc1nc2c(C34CC(C(F)(F)F)(C3)C4)nc([C@H]3CCO[C@@H](c4ccc(=O)n(C)c4)C3)nc2nc1C1CC1` [Example 155, 1-methyl-5-[(2R,4S)-4-[7-cyclopropyl-6-methyl-4-[3-(trifluoro-methyl)-1-bicyclo[1.1.1]pentanyl]-pteridin-2-yl]tetrahydropyran-2-yl]pyridin-2-one], the EC50 is < 100 nM.
As for `[2H]C([2H])([2H])n1cc([C@H]2CN(c3nc(C45CC(C(F)(F)F)(C4)C5)c4nc(C)c(C)nc4n3)C[C@@H](C)O2)ccc1=O` [Example 354], the concentration for a half-maximal effect (EC50) was < 100 nM.
Same read-out and setting: for `Cc1nc2nc([C@@H]3CCO[C@@H](c4ccc(=O)n(C5CC5)c4)C3)nc(-c3ccc(C(F)(F)F)cc3F)c2nc1C` [Example 66, 1-cyclopropyl-5-[(2R,4R)-4-[4-[2-fluoro-4-(trifluoromethyl)phenyl]-6,7-dimethyl-pteridin-2-yl]tetrahydropyran-2-yl]pyridin-2-one] the value was < 100 nM.
The same measure, in the same setting: the result for `Cc1cc(-n2cc([C@H]3C[C@@H](c4nc(C56CC(C(F)(F)F)(C5)C6)c5nc(C)c(C)nc5n4)CCO3)ccc2=O)cs1` [Example 105, 5-((2R,4S)-4-(6,7-dimethyl-4-(3-(trifluoromethyl)bicyclo[1.1.1]pentan-1-yl)pteridin-2-yl)tetrahydro-2H-pyran-2-yl)-1-(5-methylthiophen-3-yl)pyridin-2 (1H)-one] reads < 100 nM.
Same read-out and setting: the result for `Cc1nc2nc(C3CCO[C@@H](c4ccc(=O)n(N(C)C)c4)C3)nc(C34CC(C(F)(F)F)(C3)C4)c2nc1C(F)F` (stereo in doubt) [Example 220, 5-((2R,4R)-4-(6-(difluoromethyl)-7-methyl-4-(3-(trifluoromethyl)bicyclo[1.1.1]pentan-1-yl)pteridin-2-yl)tetrahydro-2H-pyran-2-yl)-1-(dimethylamino)pyridin-2(1H)-one] reads < 100 nM.
`CN(C)c1nc2nc(C3CCOC(c4ccc(=O)n(C)c4)C3)nc(-c3ccc(F)cc3F)c2s1` (stereo not shown) [Example 15]: the EC50 is < 100 nM.
On the same count and under the same terms, the result for `Cc1noc(-c2cc3c(C45CC(C(F)(F)F)(C4)C5)nc([C@H]4CCO[C@@H](c5ccc(=O)n(C(F)F)c5)C4)nc3nc2C)n1` [Example 352] reads > 500 nM; that for `Cc1cnc2nc([C@H]3CCO[C@@H](c4ccc(=O)n(C)c4)C3)nc(C34CC(C(F)(F)F)(C3)C4)c2n1` [Example 198, 1-methyl-5-((2R,4S)-4-(6-methyl-4-(3-(trifluoromethyl)bicyclo[1.1.1]pentan-1-yl)pteridin-2-yl)tetrahydro-2H-pyran-2-yl)pyridin-2(1H)-one], 100 to 500 nM; that for `Cc1nc2nc([C@H]3CCO[C@@H](c4cnc(=O)n(C)c4)C3)nc(C34CC(C(F)(F)F)(C3)C4)c2nc1C` [Example 161], < 100 nM.
For the molecule `Cc1nc2nc([C@H]3CCO[C@@H](c4ccc(=O)n(C56CC(C5)C6)c4)C3)nc(C34CC(C(F)(F)F)(C3)C4)c2nc1C` [Example 120, 1-(1-bicyclo[1.1.1]pentanyl)-5-[(2R,4S)-4-[6,7-dimethyl-4-[3-(trifluoromethyl)-1-bicyclo-[1.1.1]pentanyl]pteridin-2-yl]tetrahydropyran-2-yl]pyridin-2-one], the EC50 was < 100 nM.
On the same count and under the same terms, for `Cc1nc2c(C34CC(C(F)(F)F)(C3)C4)nc([C@H]3CCO[C@@H](c4ccc(=O)n(C)c4)C3)nc2c(=O)n1C` (racemic) [Example 217, 2,3-dimethyl-6-[rac-(2R,4S)-2-(1-methyl-6-oxo-3-pyridyl)tetrahydropyran-4-yl]-8-[3-(trifluoromethyl)-1-bicyclo[1.1.1]pentanyl]pyrimido[5,4-d]pyrimidin-4-one] the value was < 100 nM; for `Cc1nc2nc([C@H]3CCO[C@@H](c4ccc(=O)n(C(C)C)c4)C3)nc(-c3ccc(C(F)(F)F)cc3F)c2nc1C` [Example 68, 1-isopropyl-5-[(2R,4S)-4-[4-[2-fluoro-4-(trifluoromethyl)-phenyl]-6,7-dimethyl-pteridin-2-yl]tetrahydropyran-2-yl]pyridin-2-one], < 100 nM.
On the same count and under the same terms, for `Cc1nc2nc([C@H]3CCO[C@@H](c4ccc(=O)[nH]c4)C3)nc(C34CC(C(F)(F)F)(C3)C4)c2nc1C` [Example 34, 5-[(2R,4S)-4-[6,7-dimethyl-4-[3-(trifluoromethyl)-1-bicyclo[1.1.1]pentanyl]pteridin-2-yl]tetrahydropyran-2-yl]-1H-pyridin-2-one] the value was < 100 nM; for `Cc1nc2nc([C@H]3CCO[C@@H](c4ccc(=O)n(C)c4)C3)cc(C34CC(C(F)(F)F)(C3)C4)c2nc1C` [Example 167, 1-methyl-5-[(2R,4S)-4-[2,3-dimethyl-8-[3-(trifluoromethyl)-1-bicyclo[1.1.1]pentanyl]pyrido[2,3-b]pyrazin-6-yl]tetrahydropyran-2-yl]pyridin-2-one], < 100 nM.
